This assay has as its system osteoclast formation. The assay can be described thus: Inhibition rate of furan derivatives versus osteoclast formation (TRAP staining). The following applies: TRAP-positive multinucleated cells, untreated control set as 100%. It is filed as cell-based, mice. Here is the method:
First, bone marrow cells were isolated, as follow. After sacrificing 7-9 week female mice by cervical dislocation, femur and tibia were excised aseptically while removing attached soft tissues. After cutting both ends of long bones, 1 ml of an enzyme solution, containing 0.1% collagenase (Gibco), 0.05% trypsin and 0.5 mM EDTA (Gibco), was injected to the bone marrow cavity at one end using a syringe with a 26-guage needle, and bone marrow was then collected. After shaking the recovered bone marrow for 30 min, bone marrow cells were collected, and cultured in α-minimum essential medium (α-MEM) supplemented with 10% FBS for 24 hrs. Then, non-adherent cells were collected, which are osteoclast pregenitors, aliquotted onto culture plates at a density of 2×10^5 cells per well, and cultured for 8 days in α-MEM supplemented with 20 ng/ml of macrophage-colony stimulating factor (M-CSF, Peprotech, USA) and 30 ng/ml RANKL (Peprotech, USA). During the 8 days of culturing, the cells were treated with the Compound 1. Thereafter, osteoclast formation was investigated by fixing the cultured cells and then carrying out TRAP staining, as described in the following Experimental Example 2.2. In addition, resorption activity of osteoclasts was investigated by measuring the absorption area after removing osteoclasts in cultures in calcium phosphate-coated plates, as described in Experimental Example 2.3, below.
After cell culture, the adherent cells were washed with PBS, and TRAP staining was performed, as follows. After being fixed with citrate-acetate-formaldehyde for 5 min, the cells were incubated for 1 hr in acetate buffer (prewarmed at 37° C., pH 5.0) containing naphthol AS-BI phosphate, fast Garnet GBC and 7 mM tartrate buffer (pH 5.0). TRAP-positive multinucleated cells having 3 or more nuclei were considered as osteoclasts.
Osteoclast pregenitor cells were isolated, and their differentiation to mature osteoclasts was induced, according to the same method as in the Experimental Example 2-1, while treated with each of the furan derivatives of the present invention. According to the same method as in the Experimental Example 2-2, TRAP staining performed, and TRAP-positive multinucleated cells were counted. An inhibition rate of each furan derivative against osteoclast formation was expressed as percentage, wherein the number of stained cells in a control not treated the furan derivative was arbitrarily set as 100% (Tables 14 to 16).

This is an account of results in patent US20080221205A1, “FURAN DERIVATIVES FOR PREVENTING AND CURING OSTEOPOROSIS AND PHARMACEUTICAL COMPOSITIONS CONTAINING THE SAME” (priority 2002, published 2008).

For the molecule `CC(C)c1ccc(OCc2ccc(C(=O)O)o2)cc1` [Compound 114], the “Inhibition rate against osteoclast formation, %” value (“Inhibition rate … %” below) by setting is: (0.1 μM) 0%; (1 μM) 0%; (10 μM) 4.2%.
As to `COC(=O)c1ccc(COc2ccc3c(c2)CCC3)o1` [Compound 70], the “Inhibition rate … %” value reads like this: (0.1 μM) 0%; (1 μM) 0%.
With `O=C(Nc1cccc(Br)c1)c1ccc(COc2ccc(F)cc2)o1` [Compound 140], the “Inhibition rate … %” value stood at 0% (0.1 μM) and 0% (1 μM).
Consider `COC(=O)c1ccc(COc2ccc(Cl)c(C)c2)o1` [Compound 75], for which the “Inhibition rate … %” value is, setting by setting: (0.1 μM) 0%; (1 μM) 0%; (10 μM) 0.78%.
For `O=Cc1ccc(COC(=O)Cc2cccc(Cl)c2)o1` [Compound 35], for the setting “0.1 μM”, the “Inhibition rate … %” value was 0%.
The same measure, in the same setting: to `CCOc1ccccc1NC(=O)c1ccc(COc2ccc(Cl)cc2[N+](=O)[O-])o1` [Compound 144] belongs 0%.
Turning to `O=C(O)c1ccc(COc2cc(Cl)ccc2Cl)o1` [Compound 109], the “Inhibition rate … %” value (0.1 μM) worked out at 0% and the “Inhibition rate … %” value (1 μM) came out at 0%.
For the molecule `Cc1ccc(OCc2ccc(C(=O)Nc3ccc(F)c(F)c3)o2)cc1C` [Compound 186], the “Inhibition rate … %” value (0.1 μM) was 0% and the “Inhibition rate … %” value (1 μM) is 0%.
Regarding `O=C(O)c1ccc(CSCc2ccccc2)o1` [Compound 120], the “Inhibition rate … %” value was 0% (0.1 μM) and 0% (1 μM).
Consider `O=C(Nc1ccccc1[N+](=O)[O-])c1ccc(COc2ccccc2Cl)o1` [Compound 183], for which the “Inhibition rate … %” value runs as follows: (0.1 μM) 0%; (1 μM) 0%.
Take `CCCc1ccc(OCc2ccc(C(=O)Nc3cc(Cl)ccc3Cl)o2)cc1` [Compound 170]: the “Inhibition rate … %” value reads like this: (0.1 μM) 0%; (1 μM) 0%.
Take `Cc1ccc(F)c(NC(=O)c2ccc(COc3ccc(C)cc3[N+](=O)[O-])o2)c1` [Compound 155]: the “Inhibition rate … %” value is given as 0% (0.1 μM) and 0% (1 μM).
With `O=Cc1ccc(COC(=O)Nc2ccc(Br)cc2)o1` [Compound 50], the “Inhibition rate … %” value was 0% (0.1 μM), 10% (1 μM) and 0% (10 μM).
Turning to `O=Cc1ccc(COC(=O)Cc2ccsc2)o1` [Compound 36], the “Inhibition rate … %” value reads like this: (0.1 μM) 0%; (10 μM) 30%.
As to `Cc1cc(OCc2ccc(C(=O)Nc3cccc(C)c3C)o2)ccc1Cl` [Compound 172], the “Inhibition rate … %” value is 0% (0.1 μM) and 0% (1 μM).
Regarding `COc1ccccc1NC(=O)c1ccc(COc2ccc(C(C)(C)C)cc2)o1` [Compound 189], the “Inhibition rate … %” value reads like this: (0.1 μM) 0%; (1 μM) 0%.
For the molecule `O=C(O)c1ccc(COc2ccccc2Br)o1` [Compound 108], the “Inhibition rate … %” value reads like this: (0.1 μM) 0%; (1 μM) 0%.
As for `O=Cc1ccc(COC(=O)Cc2cccc(F)c2)o1` [Compound 37], the “Inhibition rate … %” value (0.1 μM) was 0% and the “Inhibition rate … %” value (1 μM) is recorded as 10%.
The matching figures for `CCCc1ccc(OCc2ccc(C(=O)O)o2)cc1` [Compound 100]: 0% and 0%.
Turning to `CCN(CC)C(=O)c1ccc(COc2ccc(Cl)c(C)c2)o1` [Compound 123], the “Inhibition rate … %” value by setting is: (0.1 μM) 0%; (1 μM) 6.9%; (10 μM) 100%.
As to `CCc1cccc(NC(=O)c2ccc(COc3ccc(F)cc3)o2)c1` [Compound 163], the “Inhibition rate … %” value is reported as 0% (0.1 μM) and 0% (1 μM).
`COC(=O)c1ccc(COc2ccccc2[N+](=O)[O-])o1` [Compound 67]: the “Inhibition rate … %” value is reported as 0% (0.1 μM) and 0% (1 μM).
For the molecule `O=C(Nc1cccc([N+](=O)[O-])c1)c1ccc(COc2ccc(I)cc2)o1` [Compound 191], the “Inhibition rate … %” value (0.1 μM) is recorded as 0% and the “Inhibition rate … %” value (1 μM) is on record as 0%.
For the molecule `O=C(O)c1ccc(COc2cccc(Cl)c2)o1` [Compound 112], the “Inhibition rate … %” value (0.1 μM) is 0% and the “Inhibition rate … %” value (1 μM) is on record as 0%.
For the molecule `CC(=O)c1ccc(NC(=O)c2ccc(COc3cccc4ccccc34)o2)cc1` [Compound 160], the “Inhibition rate … %” value worked out at 0% (0.1 μM) and 0% (1 μM).
Take `C=CCc1ccc(OCc2ccc(C(=O)OC)o2)c(OC)c1` [Compound 59]: the “Inhibition rate … %” value by setting is: (0.1 μM) 0%; (1 μM) 0%.
On to `O=C(O)c1ccc(COc2cccc3ccccc23)o1` [Compound 117], for which the “Inhibition rate … %” value reads like this: (0.1 μM) 0%; (1 μM) 0%.
`COc1ccc(NC(=O)c2ccc(COc3ccccc3Br)o2)c(OC)c1` [Compound 188]: the “Inhibition rate … %” value reads like this: (0.1 μM) 0%; (1 μM) 0%; (10 μM) 7.6%.
In the case of `O=C(O)c1ccc(COc2ccccc2Cl)o1` [Compound 107], the “Inhibition rate … %” value is recorded as 0% (0.1 μM), 0% (1 μM) and 32% (10 μM).
Regarding `COC(=O)c1ccccc1NC(=O)c1ccc(COc2ccc(C)c(C)c2)o1` [Compound 180], the “Inhibition rate … %” value is given as 0% (0.1 μM) and 0% (1 μM).
With `COc1ccc(NC(=O)c2ccc(COc3ccc(Cl)c(C)c3)o2)cc1` [Compound 150], the “Inhibition rate … %” value is 0% (0.1 μM) and 0% (1 μM).
Take `COc1ccc(F)c(CC(=O)OCc2ccc(C=O)o2)c1` [Compound 42]: under “0.1 μM”, the “Inhibition rate … %” value stood at 0%.
`CC(C)NC(=O)c1ccc(CNc2cc(Cl)ccc2Cl)o1` [Compound 130]: the “Inhibition rate … %” value was determined as 0% (0.1 μM) and 0% (1 μM).
Take `COc1ccccc1OCc1ccc(C(=O)Nc2ccccc2Cl)o1` [Compound 174]: the “Inhibition rate … %” value is, setting by setting: (0.1 μM) 0%; (1 μM) 0%.
`O=C(O)c1ccc(COc2ccc(Br)cc2)o1` [Compound 103]: the “Inhibition rate … %” value runs as follows: (0.1 μM) 0%; (1 μM) 0%.
In the case of `O=Cc1ccc(COC(=O)Nc2ccc(Cl)c(Cl)c2)o1` [Compound 54], the “Inhibition rate … %” value is, setting by setting: (0.1 μM) 0%; (1 μM) 0%; (10 μM) 10%.
With `COc1ccccc1NC(=O)c1ccc(COc2ccccc2OC)o1` [Compound 166], the “Inhibition rate … %” value by setting is: (0.1 μM) 0%; (1 μM) 0%.
